Laboratory results published in patent EP3959993B1, “METHOD FOR SOLVENT FREE PRODUCTION OF AROMA CONCENTRATES” (Symrise AG, priority 2020, dated 2022).

Tests used:
[1] = theoretical solubility, values known in the literature; cited from earlier work
[2] = Influence of the amount of NaCl on the distribution between oil phase and water phase (Example 5); assay type: physicochemical
[3] = Second oil phase obtained by adding NaCl to the water phase (Example 4); assay type: physicochemical; conditions: after separating oil phases I and II
Protocol: Cross linked polystyrene was used as adsorbent material. The volume flux for loading the adsorbent was 300 ml/min.
The adsorbent was heated to 150 °C, the temperature of the applied water steam was 160 °C.
The water steam flux was 10 g/min and was applied for 100 min.
The oil and water phases were separated.
A second oil phase was separated and was collected.

SMILES | Solubility in water (%) [1] [%] | Distribution in [%] between oil phase and water phase after condensation: Oil phase ([2]; NaCl 0%) [%] | Distribution in [%] between oil phase and water phase after condensation: Water phase ([2]; NaCl 0%) [%] | Distribution in [%] between oil phase and water phase after condensation: Oil phase ([2]; NaCl 27.8 %) [%] | Distribution in [%] between oil phase and water phase after condensation: Water phase ([2]; NaCl 27.8 %) [%] | Distribution in [%] between oil phase and water phase after condensation: Oil phase ([2]; NaCl 41.67%) [%] | Distribution in [%] between oil phase and water phase after condensation: Water phase ([2]; NaCl 41.67%) [%] | Distribution in [%] between oil phase and water phase after condensation: Oil phase ([2]; NaCl 55.56 %) [%] | Distribution in [%] between oil phase and water phase after condensation: Water phase ([2]; NaCl 55.56 %) [%] | Distribution in [%] between oil phase and water phase after condensation: Oil phase ([2]; NaCl 69.44 %) [%] | Distribution in [%] between oil phase and water phase after condensation: Water phase ([2]; NaCl 69.44 %) [%] | Distribution in [%] between oil phase and water phase after condensation: Oil phase ([2]; NaCl 83.33 %) [%] | Distribution in [%] between oil phase and water phase after condensation: Water phase ([2]; NaCl 83.33 %) [%] | Loss in the water phase [3]
[Cl-].[K+] [Potassium chloride] | 34.7 | – | – | – | – | – | – | – | – | – | – | – | – | –
O=P([O-])([O-])OP(=O)([O-])OP(=O)([O-])[O-].[Na+].[Na+].[Na+].[Na+].[Na+] [Triphosphate (Na)] | 14.5 | – | – | – | – | – | – | – | – | – | – | – | – | –
CC(=O)OCCc1ccccc1 [phenylethyl acetate] | – | 70.8 | 29.2 | 96.9 | 3.1 | 98 | 2 | 100 | 0 | 100 | 0 | 100 | 0 | 0,0%
CCC/C=C/C=O [trans-2-hexenal] | – | 35.5 | 64.5 | 63.6 | 36.4 | 71.5 | 28.5 | 76.8 | 23.2 | 83.3 | 16.7 | 87.5 | 12.5 | 12,5%
CCC/C=C/CO [trans-2-hexenol] | – | 37.9 | 62.1 | 73.6 | 26.4 | 82.6 | 17.4 | 88.4 | 11.6 | 91.7 | 8.3 | 94 | 6 | 6,0%
CCC/C=C/COC(C)=O [trans-2-hexenyl acetate] | – | 100 | 0 | 97.2 | 2.8 | 100 | 0 | 100 | 0 | 100 | 0 | 100 | 0 | 0,0%
CC/C=C/CCO [trans-3-hexenol] | – | 51.8 | 48.2 | 84 | 16 | 90.5 | 9.5 | 93.6 | 6.4 | 96.2 | 3.8 | 97.3 | 2.7 | 2,7%
